Data from ChEMBL document CHEMBL1201862, “PubChem BioAssay data set” (2004).
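Dose response: 5 concentrations. Exposure: 48 h. Format: 96-well plates. Endpoint: linear interpolation; highest concentration if not reached. Here, GI50 denotes the concentration required for 50% inhibition of growth.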 Active and inactive are the calls of the source. Cut-off read from the data, not from the text of the source: active = GI50 up to about 1.1 µM and inactive = higher.

Legend:
Assay in all cases: NCI-60 cell line screen, 48 h
CAKI-1 = tested on: CAKI-1
CCRF-CEM = tested on: CCRF-CEM
HCC 2998 = tested on: HCC 2998
HCT-15 = tested on: HCT-15
HOP-92 = tested on: HOP-92
IGROV-1 = tested on: IGROV-1
KM12 = tested on: KM12
M14 = tested on: M14
MDA-N = tested on: MDA-N
MOLT-4 = tested on: MOLT-4
NCI-H226 = tested on: NCI-H226
NCI-H522 = tested on: NCI-H522
OVCAR-5 = tested on: OVCAR-5
RPMI-8226 = tested on: RPMI-8226
SF-268 = tested on: SF-268
SK-MEL-5 = tested on: SK-MEL-5
SK-OV-3 = tested on: SK-OV-3
T47D = tested on: T47D
TK-10 = tested on: TK-10
UACC-257 = tested on: UACC-257

Compound | GI50 (CAKI-1) | GI50 (CCRF-CEM) | GI50 (HCC 2998) | GI50 (HCT-15) [µM] | GI50 (HOP-92) | GI50 (IGROV-1) | GI50 (KM12) | GI50 (M14) | GI50 (MDA-N) | GI50 (MOLT-4) | GI50 (NCI-H226) | GI50 (NCI-H522) | GI50 (OVCAR-5) | GI50 (RPMI-8226) | GI50 (SF-268) | GI50 (SK-MEL-5) | GI50 (SK-OV-3) | GI50 (T47D) | GI50 (TK-10) | GI50 (UACC-257)
CCCCN(Cc1ccccc1)/C(=N/C#N)N(Cc1ccccc1)Cc1ccccc1 | 10 µM (inactive) | 26.7 µM (inactive) | 26.5 µM (inactive) | 14.4 | 11.4 µM (inactive) | 17.6 µM (inactive) | 10.2 µM (inactive) | 12.8 µM (inactive) | 14.2 µM (inactive) | > 100 µM (inactive) | 23.1 µM (inactive) | 7.26 µM (inactive) | 27 µM (inactive) | 12.6 µM (inactive) | 18.8 µM (inactive) | 14.8 µM (inactive) | 30.2 µM (inactive) | 15.8 µM (inactive) | 38.1 µM (inactive) | 10.6 µM (inactive)
O=[N+]([O-])c1ccc2c(c1)C1=NN(c3ccccc3)C(c3ccccc3Br)C1CCC2 (stereo not given) | 23.4 µM (inactive) | 2.19 µM (inactive) | 21.9 µM (inactive) | 13.3 | 14.6 µM (inactive) | 27.5 µM (inactive) | 16.9 µM (inactive) | 23.2 µM (inactive) | 17.3 µM (inactive) | 6.97 µM (inactive) | 25.5 µM (inactive) | 13.3 µM (inactive) | > 50 µM (inactive) | 6.85 µM (inactive) | 21.9 µM (inactive) | 15.4 µM (inactive) | > 50 µM (inactive) | 10.2 µM (inactive) | 38.2 µM (inactive) | 19 µM (inactive)
CCOC(=O)[C@@H]1ON2O[C@H](OC3CCCC3(c3ccccc3)c3ccccc3)C[C@H]3OC(=O)[C@@H]1C32 (stereo not given in full) | 22.9 µM (inactive) | 26.3 µM (inactive) | 52.1 µM (inactive) | 48.3 | 95.7 µM (inactive) | 33.7 µM (inactive) | 27.9 µM (inactive) | 45.3 µM (inactive) | 43.3 µM (inactive) | 45 µM (inactive) | 36.4 µM (inactive) | 36.4 µM (inactive) | > 100 µM (inactive) | 35.6 µM (inactive) | 95.9 µM (inactive) | 75.9 µM (inactive) | > 100 µM (inactive) | 26.1 µM (inactive) | 81.3 µM (inactive) | 52.4 µM (inactive)
COc1ccccc1NC(=S)N/N=C(/c1ccccc1)c1ccccn1 | < 0.0421 µM (active) | 0.0316 µM (active) | 5.97 µM (inactive) | 0.045 | 0.522 µM (active) | 0.0225 µM (active) | 0.151 µM (active) | < 0.0249 µM (active) | 0.229 µM (active) | < 0.0182 µM (active) | 0.146 µM (active) | 0.499 µM (active) | 0.0635 µM (active) | 0.0299 µM (active) | 0.144 µM (active) | 0.0904 µM (active) | 0.0771 µM (active) | < 0.0426 µM (active) | 0.125 µM (active) | < 0.0167 µM (active)
Clc1cccc(Cl)c1/C=N/C12CC3CC(CC(C3)C1)C2 | > 10 µM (inactive) | > 10 µM (inactive) | > 10 µM (inactive) | > 10 | > 10 µM (inactive) | > 10 µM (inactive) | > 10 µM (inactive) | > 10 µM (inactive) | > 10 µM (inactive) | > 10 µM (inactive) | > 10 µM (inactive) | > 10 µM (inactive) | > 10 µM (inactive) | > 10 µM (inactive) | > 10 µM (inactive) | > 10 µM (inactive) | > 10 µM (inactive) | > 10 µM (inactive) | > 10 µM (inactive) | > 10 µM (inactive)
C[N+](C)([O-])CCCNc1c2ccccc2nc2cccc([N+](=O)[O-])c12 | 1.72 µM (inactive) | 0.249 µM (active) | 0.164 µM (active) | 0.457 | 0.31 µM (active) | 0.259 µM (active) | 0.412 µM (active) | 0.258 µM (active) | 0.173 µM (active) | 0.142 µM (active) | 0.313 µM (active) | 0.115 µM (active) | 0.355 µM (active) | 0.313 µM (active) | 0.274 µM (active) | 0.161 µM (active) | 0.631 µM (active) | 0.257 µM (active) | 0.982 µM (active) | 0.536 µM (active)
